Source: ChEMBL document CHEMBL1201862, “PubChem BioAssay data set” (2004)
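Step 1: Grow cells in 96-well plates. Step 2: Expose to compound for 48 hours at 5 concentrations. Step 3: Interpolate endpoints linearly; if unreached, use highest concentration. Abbreviation: GI50, concentration required for 50% inhibition of growth.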 The source made the active and inactive calls. Cut-off read from the data, not from the text of the source: active = GI50 up to about 1.1 µM and inactive = higher.

Key:
Experiment in all cases: NCI anticancer screen, dose series, 48 h
[1] = tested on: CCRF-CEM
[2] = tested on: HCC 2998
[3] = tested on: HOP-62
[4] = tested on: IGROV-1
[5] = tested on: K562
[6] = tested on: LOX IMVI
[7] = tested on: MOLT-4
[8] = tested on: NCI-H522
[9] = tested on: OVCAR-5
[10] = tested on: OVCAR-8
[11] = tested on: RXF 393
[12] = tested on: SF-295
[13] = tested on: SK-MEL-2
[14] = tested on: SNB-75
[15] = tested on: TK-10
[16] = tested on: UACC-257
[17] = tested on: MDA-MB-231
[18] = tested on: MDA-MB-435
[19] = tested on: PC-3
[20] = tested on: SK-MEL-28

Measured: GI50

Cc1c(C(Cc2ccccc2N(C)C(=O)/C=C\C(=O)O)c2c[nH]c3ccccc23)c2ccccc2n1C (stereo not drawn)
inactive: [1] 14.9 µM | [2] 16.3 µM | [3] 16.2 µM | [4] 18.2 µM | [5] 18.7 µM | [6] 15.3 µM | [7] 22.9 µM | [8] 15.1 µM | [9] 21.2 µM | [10] 13.2 µM | [11] 14.2 µM | [12] 14.5 µM | [13] > 10 µM | [14] 16.5 µM | [15] 17.7 µM | [16] 15.7 µM

COc1cc2nc(-c3cccs3)nc(Cl)c2cc1OC
inactive: [3] > 100 µM | [4] > 100 µM | [5] 69.5 µM | [17] > 100 µM | [18] > 100 µM | [8] > 100 µM | [9] > 100 µM | [10] > 100 µM | [19] > 100 µM | [12] > 100 µM | [20] > 100 µM | [13] > 100 µM | [14] > 100 µM | [15] > 100 µM | [16] 68.9 µM

Clc1ccccc1C1=NN(c2ccccc2)C2c3ccccc3OCC12 (stereo not drawn)
inactive: [1] 64.9 µM | [2] > 100 µM | [3] > 100 µM | [4] > 100 µM | [5] 44.3 µM | [6] 88.1 µM | [7] 57.8 µM | [8] > 100 µM | [9] > 100 µM | [10] > 100 µM | [11] > 100 µM | [12] 79.6 µM | [20] > 100 µM | [13] > 100 µM | [14] > 100 µM | [15] > 100 µM | [16] 79.3 µM

CCOC(=O)/C=C1/Oc2ccccc2C1(C)O (stereo not drawn)
inactive: [1] > 100 µM | [2] > 100 µM | [3] > 100 µM | [4] > 100 µM | [5] > 100 µM | [6] > 100 µM | [7] > 100 µM | [8] > 100 µM | [9] > 100 µM | [10] > 100 µM | [11] 68.7 µM | [12] > 100 µM | [20] > 100 µM | [13] > 100 µM | [14] > 100 µM | [15] > 100 µM | [16] > 100 µM

CN(N)c1nc(N)c(C#N)c(C#N)c1C#N
inactive: [1] > 10 µM | [2] > 10 µM | [3] > 10 µM | [4] > 10 µM | [5] > 10 µM | [6] > 10 µM | [17] > 10 µM | [18] > 10 µM | [7] > 10 µM | [8] > 10 µM | [9] > 10 µM | [10] > 10 µM | [19] > 10 µM | [12] > 10 µM | [20] > 10 µM | [14] > 10 µM | [15] > 10 µM | [16] > 10 µM

CCc1ccccc1NC(=O)C(=O)CC(=O)c1sc(Nc2ccccc2)nc1C
inactive: [1] 32.1 µM | [2] > 100 µM | [3] > 100 µM | [4] > 100 µM | [5] 97.1 µM | [6] > 100 µM | [7] 48.6 µM | [8] 73.5 µM | [9] > 100 µM | [10] > 100 µM | [11] > 100 µM | [12] > 100 µM | [20] > 100 µM | [13] > 100 µM | [14] 67.9 µM | [15] > 100 µM | [16] > 100 µM

Oc1ccc2c(c1)CCc1c-2n(CCN2CCOCC2)c2ccc(O)cc12
inactive: [1] 38.2 µM | [3] 43.4 µM | [4] 11 µM | [5] 41.6 µM | [6] 41.2 µM | [17] 49.7 µM | [18] 44.4 µM | [7] 33.4 µM | [9] 78.3 µM | [10] 20.2 µM | [19] 35.3 µM | [11] 30.5 µM | [12] 47.2 µM | [20] 29.3 µM | [13] 27.1 µM | [14] 16.8 µM | [15] 36.7 µM | [16] 37.2 µM

[N-]=[N+]=NC1CC(n2cc(COCC(F)(F)F)c(=O)[nH]c2=O)OC1CO (stereo not drawn)
inactive: [1] > 100 µM | [2] > 100 µM | [3] > 100 µM | [4] > 100 µM | [5] > 100 µM | [6] > 100 µM | [7] > 100 µM | [8] > 100 µM | [9] > 100 µM | [10] > 100 µM | [11] > 100 µM | [12] > 100 µM | [20] > 100 µM | [13] > 100 µM | [14] > 100 µM | [15] > 100 µM | [16] > 100 µM

Cc1c2cccc-2ccc2c3ccccc3n(C(=O)c3ccc(Cl)cc3)c12
inactive: [1] > 57 µM | [3] > 100 µM | [4] > 100 µM | [5] > 100 µM | [6] > 100 µM | [17] > 100 µM | [18] > 100 µM | [7] > 85.5 µM | [8] > 100 µM | [9] > 100 µM | [10] > 100 µM | [19] > 100 µM | [11] > 100 µM | [12] > 100 µM | [20] > 100 µM | [13] > 100 µM | [14] > 100 µM | [15] > 100 µM | [16] > 100 µM

C=C1c2[nH]c3ccccc3c2CC(C(=O)O)N1C(O)c1ccc(S(=O)(=O)O)cc1 (stereo not drawn)
inactive: [1] > 100 µM | [2] > 100 µM | [3] > 100 µM | [5] > 100 µM | [6] > 100 µM | [7] > 100 µM | [8] > 100 µM | [9] > 100 µM | [10] > 100 µM | [11] > 100 µM | [12] > 100 µM | [20] > 100 µM | [13] > 100 µM | [14] 65.6 µM | [15] > 100 µM | [16] > 100 µM

C=CCCCN1CCCC(C)C1=S (stereo not drawn)
inactive: [1] > 100 µM | [2] > 100 µM | [3] > 100 µM | [4] > 100 µM | [5] > 100 µM | [6] > 100 µM | [7] > 100 µM | [8] > 100 µM | [9] > 100 µM | [10] > 100 µM | [11] > 100 µM | [12] > 100 µM | [20] > 100 µM | [13] > 100 µM | [14] 52 µM | [15] > 100 µM | [16] > 100 µM

O=C(Nc1ccccc1Br)c1cccc([N+](=O)[O-])c1O
inactive: [1] 2.78 µM | [2] 2.49 µM | [3] 2.32 µM | [4] 2.88 µM | [5] 3.13 µM | [6] 2.38 µM | [7] 2.26 µM | [8] 2.03 µM | [9] 5.13 µM | [10] 4.16 µM | [11] 1.86 µM | [12] 3.87 µM | [20] 4.37 µM | [13] 6.9 µM | [14] 5.25 µM | [15] 1.54 µM | [16] 2.01 µM

Nc1cc2[nH]c(=O)c3cc(Cl)ccc3c2cc1Cl
inactive: [1] 18.7 µM | [2] 23.7 µM | [3] 16.8 µM | [4] 4.07 µM | [5] 23 µM | [6] 11.1 µM | [17] 14.1 µM | [18] 14.3 µM | [7] 4.11 µM | [8] 13.4 µM | [9] 15.6 µM | [10] 3 µM | [12] 9.12 µM | [20] 60.4 µM | [13] 25 µM | [14] 15.5 µM | [15] 11.8 µM | [16] 21.1 µM

Cc1ccccc1NC(=O)CC(=O)n1nc(-c2ccccc2)c(/N=N/c2ccc([N+](=O)[O-])cc2)c1-c1ccccc1
inactive: [1] 28.4 µM | [2] 17.9 µM | [3] 16 µM | [4] 28.1 µM | [5] 12.3 µM | [6] 20.6 µM | [7] 16.1 µM | [8] 18.9 µM | [9] 32 µM | [10] 31.4 µM | [11] 19.1 µM | [12] 17.4 µM | [20] 27.3 µM | [13] 25.3 µM | [14] 19.2 µM | [15] 37.1 µM | [16] 19.9 µM

CC(C)(C)c1cc(CCC(=O)Nc2ccc(Cl)cc2)nc(S)n1
inactive: [1] > 100 µM | [2] > 100 µM | [3] > 100 µM | [4] > 100 µM | [5] > 100 µM | [6] > 100 µM | [7] > 100 µM | [8] > 100 µM | [9] > 100 µM | [10] > 100 µM | [11] > 100 µM | [12] > 100 µM | [20] > 100 µM | [13] > 100 µM | [14] > 100 µM | [15] > 100 µM | [16] > 100 µM

O=[N+]([O-])c1ccc2c(c1)OCCOCCOc1ccc([N+](=O)[O-])cc1OCCOCCO2
inactive: [1] > 100 µM | [2] > 100 µM | [3] > 100 µM | [4] > 100 µM | [5] > 100 µM | [6] > 100 µM | [7] > 100 µM | [8] > 100 µM | [9] > 100 µM | [10] > 100 µM | [11] > 100 µM | [12] > 100 µM | [20] > 100 µM | [13] > 100 µM | [14] > 100 µM | [15] > 100 µM | [16] > 100 µM
